Calls of active or inactive are those of the source.
Legend:
[1] = activation of miR-122 Renilla sensor silencing – cell-based, Huh7 psiCHECK-miR122, Renilla luciferase, cherry-picked, dose response (AID 651956); type: functional;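 note: huh7 hepatoma cells stably carrying a psiCHECK-2 miR-122 sensor plasmid; renilla luciferase signal reporting endogenous miR-122 activity after 48 h compound exposure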
[2] = inhibitors of EBV LMP1 NF-kappaB signaling – cell-based, luciferase reporter, luminescence, dry powder, set 2, dose response (AID 624376); type: functional
[3] = LMP1-induced NF-kB luciferase signal inhibition – cell-based, EBV LMP1, dry powder, set 2, dose response (AID 624361); type: functional
[4] = TNFa-induced NF-kB reporter signal decrease – HEK293 LMP1 reporter cells, dry powder, set 2, selectivity assay for EBV LMP1 NF-kB inhibitor project, dose response (AID 624369); type: functional
[5] = MITF: Counter assay: A375 proliferation Measured in Cell-Based System Using Plate Reader - 2084-03_Inhibitor_Dose_DryPowder_Activity_Set8.; type: functional; details: A-375
[6] = inhibitors of TRPM1-promoter reporter in SK-MEL-5 – cell-based, luciferase, dry powder, set 8, MITF inhibitor project, dose response (AID 624430); type: functional
[7] = MITF Orthogonal Assay: SK-MEL-5 CTG Assay Measured in Cell-Based System Using Plate Reader - 2084-02_Inhibitor_Dose_DryPowder_Activity_Set7.; type: functional
cells = type: functional, cell-based
[8] = target: T1, Nuclear receptor subfamily 0 group B member 1 (Homo sapiens, UniProt P51843); type: functional, cell-based;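 note: HEK293T cells transfected with SF-1 and DAX-1 plus StAR promoter luciferase reporter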
T1 sequence (P51843 whole entry): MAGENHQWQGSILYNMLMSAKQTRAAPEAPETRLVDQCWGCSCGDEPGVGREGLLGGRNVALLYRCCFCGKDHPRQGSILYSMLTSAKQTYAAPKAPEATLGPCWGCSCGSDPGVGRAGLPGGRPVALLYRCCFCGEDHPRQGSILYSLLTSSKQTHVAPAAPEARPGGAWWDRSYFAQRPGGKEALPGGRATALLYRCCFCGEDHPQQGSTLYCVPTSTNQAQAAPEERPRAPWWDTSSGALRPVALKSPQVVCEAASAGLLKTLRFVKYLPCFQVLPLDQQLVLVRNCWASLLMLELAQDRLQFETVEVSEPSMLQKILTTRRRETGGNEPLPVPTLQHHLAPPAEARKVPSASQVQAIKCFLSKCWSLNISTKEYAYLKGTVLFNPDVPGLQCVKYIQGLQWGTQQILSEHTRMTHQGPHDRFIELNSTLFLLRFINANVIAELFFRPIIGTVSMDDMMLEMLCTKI

[9] = Late stage assay provider results from the probe development effort to identify selective inhibitors of heat shock protein 90 (HSP90): Absorbance-based cell proliferation assay in SKBR3 cells.; type: functional; details: SK-BR-3
[10] = Late stage assay provider results from the probe development effort to identify selective inhibitors of heat shock protein 90 (HSP90): Absorbance-based cell proliferation assay in MCF7 cells.; type: functional
[11] = viability loss in HEK293 kidney cells – cell-based, cherry-picks, set 5, cytotoxicity control, dose response (AID 1053117); type: functional
Beta-galactosidase = Beta-galactosidase (Escherichia coli, UniProt Q8VNN2); test: Dose response counterscreen for EBI2 assay utilizing the enzyme, b-galactosidase.; type: functional
Sequence of Beta-galactosidase (Q8VNN2 whole entry): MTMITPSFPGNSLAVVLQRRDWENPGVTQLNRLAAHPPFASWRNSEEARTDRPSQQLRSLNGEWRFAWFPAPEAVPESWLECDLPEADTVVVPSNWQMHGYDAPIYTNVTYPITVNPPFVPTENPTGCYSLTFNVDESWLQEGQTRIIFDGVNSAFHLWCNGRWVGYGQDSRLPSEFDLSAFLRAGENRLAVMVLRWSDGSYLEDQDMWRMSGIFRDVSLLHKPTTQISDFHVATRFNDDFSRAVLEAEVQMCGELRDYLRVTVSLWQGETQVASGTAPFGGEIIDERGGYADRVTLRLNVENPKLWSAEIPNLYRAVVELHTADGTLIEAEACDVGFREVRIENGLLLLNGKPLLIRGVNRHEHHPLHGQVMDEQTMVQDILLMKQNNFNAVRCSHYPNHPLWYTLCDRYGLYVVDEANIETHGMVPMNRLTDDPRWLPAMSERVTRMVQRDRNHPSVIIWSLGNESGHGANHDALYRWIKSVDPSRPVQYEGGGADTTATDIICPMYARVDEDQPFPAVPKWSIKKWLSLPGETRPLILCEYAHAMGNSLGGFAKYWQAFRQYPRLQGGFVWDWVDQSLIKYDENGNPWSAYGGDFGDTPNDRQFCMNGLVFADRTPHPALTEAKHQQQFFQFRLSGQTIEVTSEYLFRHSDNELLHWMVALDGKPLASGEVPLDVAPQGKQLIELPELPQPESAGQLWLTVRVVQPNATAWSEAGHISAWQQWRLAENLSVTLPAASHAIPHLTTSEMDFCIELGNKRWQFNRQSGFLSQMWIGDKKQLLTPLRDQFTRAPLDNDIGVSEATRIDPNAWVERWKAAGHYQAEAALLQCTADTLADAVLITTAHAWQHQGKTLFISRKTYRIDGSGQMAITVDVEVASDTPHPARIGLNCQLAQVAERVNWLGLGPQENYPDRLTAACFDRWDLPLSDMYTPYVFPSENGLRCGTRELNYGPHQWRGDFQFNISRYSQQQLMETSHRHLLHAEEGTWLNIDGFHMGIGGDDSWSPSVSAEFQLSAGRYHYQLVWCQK

**Q.** Which results are given for `CN1C(=O)c2cc(NC(=O)c3ccc(C(F)(F)F)cc3)ccc2OC[C@@H]2O[C@H](CC(=O)NC3Cc4ccccc4C3)CC[C@H]21`?
**A.** AC50 [1]: 15.5 µM (active); AbsAC35 [2]: 100.28 µM; AbsAC35 [3]: 52.78 µM; AbsAC35 [4]: 229.94 µM

**Q.** For `COc1ccccc1CNC(=O)C[C@@H]1C[C@H]2c3cc(NC(=O)c4ccc5c(c4)OCO5)ccc3O[C@H]2[C@H](CO)O1`, which AbsAC35 [2] is on record?
**A.** 37.67 µM

**Q.** And the AbsAC35 [3]?
**A.** 179.84 µM

**Q.** And the AbsAC35 [4]?
**A.** 232.4 µM

**Q.** With `COc1ccc(NC2=C(C)C(=O)c3ccccc3C2=O)cc1` as the compound, how does the AC50 [5] read?
**A.** > 70 µM (inactive)

**Q.** What about the AC50 [6] of the same compound?
**A.** 14.3 µM (active)

**Q.** And the AC50 [7]?
**A.** 0.533 µM (active)

**Q.** For `COc1cc(C2c3cc4c(cc3C(O)C3COC(=O)C23)OCO4)cc(OC)c1OC` (stereo unspecified), which IC50 (cells) is on record?
**A.** > 67.5 µM (inactive)

**Q.** And the IC50 [8]?
**A.** > 67.5 µM (inactive)

**Q.** With `CC(C)(C)c1ccc(NC2=CC(=O)c3ccccc3C2=O)cc1` as the compound, how does the AC50 [5] read?
**A.** > 70 µM (inactive)

**Q.** What about the AC50 [6] of the same compound?
**A.** 13.9 µM (active)

**Q.** And the AC50 [7]?
**A.** 3.03 µM (active)

**Q.** What does the source list for `COC(=O)CCCCOc1ccc2cc(C#N)c(=O)oc2c1`?
**A.** IC50 [9]: > 100 µM (inactive); IC50 [10]: > 100 µM (inactive)

**Q.** Which results are given for `Cc1cccc(NC(=O)c2coc(=O)c(Br)c2)n1`?
**A.** IC50 [9]: 45.8 µM (inactive); IC50 [10]: 27.3 µM (inactive)

**Q.** Which AC50 [11] does the source give for `CO[C@H]1CN(C)C(=O)c2cc(NC(=O)Nc3cc(Cl)cc(Cl)c3)ccc2OC[C@@H](C)NC[C@@H]1C` here?
**A.** > 52 µM (inactive)

**Q.** With `CCCCNc1c(-c2ccc(-c3ccc(C(C)=O)cc3)c(OC)c2)nc2cc(C)ccn12` as the compound, how does the IC50 (Beta-galactosidase) read?
**A.** 77.5 µM (inactive)
